ChEMBL document CHEMBL4385611, “Difluoromethylene at the γ-Lactam α-Position Improves 11-Deoxy-8-aza-PGE1 Series EP4 Receptor Binding and Activity: 11-Deoxy-10,10-difluoro-8-aza-PGE1 Analog (KMN-159) as a Potent EP4 Agonist” (J Med Chem, 2019)

Assays:
[1] = molecular target: Prostaglandin E2 receptor EP2 subtype (Homo sapiens, UniProt P43116); assay: Displacement of [3H]PGE2 from human recombinant EP2 receptor expressed in HEK293 cell membranes after 120 mins by liquid scintillation counting method
[2] = molecular target: Prostaglandin E2 receptor EP4 subtype (Homo sapiens, UniProt P35408); assay: Displacement of [3H]PGE2 from human recombinant EP4 receptor expressed in HEK293 cell membranes after 120 mins by liquid scintillation counting method
[3] = n-Octanol-PBS buffer partition coefficient, log D of the compound at 100 uM at pH 7.4 after 1 hr by LC-MS/MS analysis; format: physicochemical
[4] = Apparent permeability across apical to basolateral side in human Caco2 cells assessed as drug recovery at 5 uM after 120 mins by LC-MS/MS analysis; format: ADME, cell-based; settings: Caco-2, read-out: Drug recovery
[5] = Half-life in human blood at 1 uM by HPLC-MS/MS analysis; format: ADME, tissue-based
[6] = Half-life in human hepatocytes at 0.1 uM by HPLC-MS/MS analysis; format: ADME, cell-based, Hepatocyte
[7] = Intrinsic clearance in human hepatocytes at 0.1 uM by HPLC-MS/MS analysis; format: ADME, cell-based, Hepatocyte
Cytochrome P450 1A = molecular target: T1, Cytochrome P450 1A (Homo sapiens, UniProt P04798+P05177); assay: Inhibition of CYP1A in human liver microsomes using phenacetin as substrate at 10 uM after 10 mins by HPLC-MS/MS analysis; format: ADME
T1 sequence (P04798 whole entry): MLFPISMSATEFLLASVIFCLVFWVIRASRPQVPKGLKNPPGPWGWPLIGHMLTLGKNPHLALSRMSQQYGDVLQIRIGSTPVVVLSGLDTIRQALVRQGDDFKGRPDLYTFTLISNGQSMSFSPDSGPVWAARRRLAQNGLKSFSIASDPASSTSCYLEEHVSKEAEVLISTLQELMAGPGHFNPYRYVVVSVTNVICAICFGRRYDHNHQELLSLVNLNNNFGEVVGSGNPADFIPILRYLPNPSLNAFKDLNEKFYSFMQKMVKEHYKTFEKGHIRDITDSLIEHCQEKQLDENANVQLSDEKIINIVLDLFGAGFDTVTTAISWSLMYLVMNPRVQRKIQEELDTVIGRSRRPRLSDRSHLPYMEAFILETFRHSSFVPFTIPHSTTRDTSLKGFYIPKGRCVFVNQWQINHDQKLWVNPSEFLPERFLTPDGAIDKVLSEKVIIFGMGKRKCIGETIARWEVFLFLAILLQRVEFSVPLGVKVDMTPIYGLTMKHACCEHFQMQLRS
T1 sequence (P05177 whole entry): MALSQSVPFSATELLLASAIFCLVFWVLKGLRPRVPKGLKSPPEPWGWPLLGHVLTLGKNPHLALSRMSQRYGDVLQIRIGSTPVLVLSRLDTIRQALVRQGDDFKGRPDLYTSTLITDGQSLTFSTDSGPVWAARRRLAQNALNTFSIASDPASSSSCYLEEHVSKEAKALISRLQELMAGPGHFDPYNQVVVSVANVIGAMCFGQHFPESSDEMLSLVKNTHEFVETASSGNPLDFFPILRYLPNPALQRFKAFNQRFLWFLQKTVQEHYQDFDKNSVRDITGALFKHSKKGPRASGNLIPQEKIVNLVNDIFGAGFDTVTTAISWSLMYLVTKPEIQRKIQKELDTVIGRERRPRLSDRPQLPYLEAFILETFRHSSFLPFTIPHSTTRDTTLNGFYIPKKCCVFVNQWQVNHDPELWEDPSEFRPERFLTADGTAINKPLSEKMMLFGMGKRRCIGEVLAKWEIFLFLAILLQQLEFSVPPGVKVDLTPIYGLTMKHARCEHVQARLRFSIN

Cytochrome P450 2B6 = molecular target: T2, Cytochrome P450 2B6 (Homo sapiens, UniProt P20813); assay: Inhibition of CYP2B6 in human liver microsomes using bupropion as substrate at 10 uM after 10 mins by HPLC-MS/MS analysis; format: ADME
T2 sequence (P20813 whole entry): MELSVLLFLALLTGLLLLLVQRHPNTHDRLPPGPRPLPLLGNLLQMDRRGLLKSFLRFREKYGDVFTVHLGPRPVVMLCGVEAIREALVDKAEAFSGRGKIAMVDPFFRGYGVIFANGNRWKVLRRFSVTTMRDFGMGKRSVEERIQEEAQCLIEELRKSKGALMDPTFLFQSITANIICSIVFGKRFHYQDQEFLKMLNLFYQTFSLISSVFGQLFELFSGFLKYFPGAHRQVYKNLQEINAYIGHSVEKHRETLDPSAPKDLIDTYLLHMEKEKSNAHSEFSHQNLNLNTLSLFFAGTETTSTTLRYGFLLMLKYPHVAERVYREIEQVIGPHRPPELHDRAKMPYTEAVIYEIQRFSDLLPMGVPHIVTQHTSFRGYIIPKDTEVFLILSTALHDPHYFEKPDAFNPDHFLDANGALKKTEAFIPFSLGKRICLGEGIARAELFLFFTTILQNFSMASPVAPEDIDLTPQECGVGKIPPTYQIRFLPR

Cytochrome P450 2C8 = molecular target: T3, Cytochrome P450 2C8 (Homo sapiens, UniProt P10632); assay: Inhibition of CYP2C8 in human liver microsomes using paclitaxel as substrate at 10 uM after 10 mins by HPLC-MS/MS analysis; format: ADME
T3 sequence (P10632 whole entry): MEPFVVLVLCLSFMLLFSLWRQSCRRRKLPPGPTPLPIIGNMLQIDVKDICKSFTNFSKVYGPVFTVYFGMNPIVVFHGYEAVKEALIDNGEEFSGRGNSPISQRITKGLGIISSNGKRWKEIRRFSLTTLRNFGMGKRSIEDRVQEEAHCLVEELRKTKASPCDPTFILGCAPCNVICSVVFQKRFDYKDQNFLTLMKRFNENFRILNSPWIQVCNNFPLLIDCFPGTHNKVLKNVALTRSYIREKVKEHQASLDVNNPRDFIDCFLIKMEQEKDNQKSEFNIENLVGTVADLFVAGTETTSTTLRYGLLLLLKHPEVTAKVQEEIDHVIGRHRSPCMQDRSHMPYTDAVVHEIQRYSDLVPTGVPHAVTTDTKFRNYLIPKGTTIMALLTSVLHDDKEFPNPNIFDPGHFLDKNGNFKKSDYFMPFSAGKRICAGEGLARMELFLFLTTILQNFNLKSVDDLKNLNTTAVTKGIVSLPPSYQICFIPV

Cytochrome P450 3A = Cytochrome P450 3A (Homo sapiens, UniProt P08684+P20815+Q9HB55+P24462); assay: Inhibition of CYP3A in human liver microsomes using testosterone as substrate at 10 uM after 10 mins by HPLC-MS/MS analysis; format: ADME
[8] = Genotoxicity in Salmonella typhimurium TA1535 at 0.6 to 100 uM after 96 hrs by photometry analysis; format: toxicity; settings: salmonella enterica subsp. enterica serovar typhimurium
[9] = Mutagenicity in Salmonella typhimurium TA1535 after 96 hrs in presence of rat liver S9 fraction by Ames test; format: toxicity, subcellular; settings: salmonella enterica subsp. enterica serovar typhimurium, s9, 96 h
Homo sapiens = species on record: Homo sapiens; assay: Selectivity ratio of Ki for displacement of [3H]PGE2 from human recombinant EP2 receptor expressed in HEK293 cell membranes to Ki for displacement of [3H]PGE2 from human recombinant EP4 receptor expressed in HEK293 cell membranes

Sequence of Prostaglandin E2 receptor EP4 subtype (P35408 whole entry): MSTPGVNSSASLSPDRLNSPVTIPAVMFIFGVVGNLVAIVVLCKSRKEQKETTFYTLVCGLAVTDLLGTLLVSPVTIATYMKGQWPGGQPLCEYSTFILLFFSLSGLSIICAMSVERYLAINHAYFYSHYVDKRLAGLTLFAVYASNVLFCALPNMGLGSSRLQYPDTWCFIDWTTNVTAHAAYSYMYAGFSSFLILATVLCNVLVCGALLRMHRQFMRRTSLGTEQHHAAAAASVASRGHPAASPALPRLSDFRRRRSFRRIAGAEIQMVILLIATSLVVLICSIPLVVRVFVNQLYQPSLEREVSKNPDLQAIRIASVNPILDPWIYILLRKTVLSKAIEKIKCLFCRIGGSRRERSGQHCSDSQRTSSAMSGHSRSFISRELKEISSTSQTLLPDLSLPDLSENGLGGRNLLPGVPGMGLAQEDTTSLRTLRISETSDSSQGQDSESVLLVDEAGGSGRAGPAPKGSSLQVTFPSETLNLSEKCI
Sequence of Prostaglandin E2 receptor EP2 subtype (P43116 whole entry): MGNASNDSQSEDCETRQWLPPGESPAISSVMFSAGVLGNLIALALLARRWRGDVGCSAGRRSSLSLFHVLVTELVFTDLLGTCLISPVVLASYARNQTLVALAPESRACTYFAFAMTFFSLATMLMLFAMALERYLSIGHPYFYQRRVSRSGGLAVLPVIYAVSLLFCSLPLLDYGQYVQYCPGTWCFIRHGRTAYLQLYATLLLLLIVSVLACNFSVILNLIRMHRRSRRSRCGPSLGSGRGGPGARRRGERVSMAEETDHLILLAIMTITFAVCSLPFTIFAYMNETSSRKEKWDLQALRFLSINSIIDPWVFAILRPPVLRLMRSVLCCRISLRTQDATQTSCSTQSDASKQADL

| Ki [1] | Ki [2] | logD at 1 h, 100 µM [3] | recovery at 2 h, 5 µM [4] | half-life at 1 µM [5] | half-life at 0.1 µM [6] | CLH [7] | inhibition (INH) (Cytochrome P450 1A) | inhibition (INH) (Cytochrome P450 2B6) | inhibition (INH) (Cytochrome P450 2C8) | inhibition (INH) (Cytochrome P450 3A) | Structure (SMILES) | Activity [8] | Activity [9] | Ratio Ki (Homo sapiens) |
| --- | --- | --- | --- | --- | --- | --- | --- | --- | --- | --- | --- | --- | --- | --- |
| 4.97 µM | 0.378 nM | 0.11 | 94% | > 120 min | > 120 min | < 8.2 µL/min/10^6 cells | Not Active | Not Active | Not Active | Not Active | CCC#CC[C@H](C)[C@H](O)/C=C/[C@H]1CC(F)(F)C(=O)N1CCCCCCC(=O)O | Non-Toxic | Non-Toxic | > 5000 |
| 12.2 µM | 2.35 nM | -0.07 | 103% | > 120 min | > 120 min | < 8.2 µL/min/10^6 cells | Not Active | Not Active | Not Active | Not Active | CCC#CC[C@H](C)[C@H](O)/C=C/[C@H]1CCC(=O)N1CCCCCCC(=O)O | Non-Toxic | Non-Toxic | > 5000 |
